Data as given in patent publication US20240108740A1, “THERAPEUTIC COMPOSITIONS INCLUDING SPN10 AND USES THEREOF” (Stealth BioTherapeutics Inc., priority 2022, published 2024).
Residues, ends and D or L forms follow the SMILES beside them.

What was measured:
[1] = system: isolated mitochondrial, cultured cells and animal subjects; test: Mitochondrial reduction potential; conditions: in vitro and in vivo
From the text: It is anticipated that SPN10(s) (with or without aromatic-cationic peptides) and conjugates will enhance mitochondrial reduction potential in vitro in isolated mitochondrial and in vivo in cultured cells and animal subjects.

[2] = system: Sprague Dawley rats; test: Example 37: acute renal injury caused by ischemia-reperfusion; type: in vivo, rat
Description: […] Sprague Dawley rats (250-300 g) will be assigned to one of the following groups: (1) sham surgery (no I/R); (2) I/R+saline vehicle; (3) I/R+peptide conjugates; (4) I/R+aromatic-cationic peptides; (5) I/R+SPN10(s); (6) I/R+SPN10(s) and aromatic-cationic peptides. Peptide conjugates (3 mg/kg in saline); aromatic-cationic peptides (an equivalent molar dose of aromatic-cationic peptide based on the concentration of the aromatic-cationic peptide administered in the peptide conjugate treatment group); SPN10(s) (an equivalent molar dose of SPN10 based on the concentration of SPN10 administered in the peptide conjugate treatment group) or SPN10(s) in combination with aromatic-cationic peptides (e.g., an equivalent molar dose of SPN10 based on the concentration of SPN10 administered in the peptide conjugate treatment group and an equivalent molar dose of aromatic-cationic peptide based on the concentration of aromatic-cationic peptide administered in the peptide conjugate treatment group) will be administered 30 minutes before ischemia and immediately before reperfusion. Control animals will be given saline alone according to the same schedule.
Rats will be anesthetized with a mixture of ketamine (90 mg/kg, i.p.) and xylazine (4 mg/kg, i.p.). […] Renal function will be determined by measuring levels of blood urea nitrogen (BUN) and serum creatinine (BioAssay Systems DIUR-500 and DICT-500).
Renal Morphologic Examination: Kidneys will be fixed in 10% neutral-buffered formalin and embedded in paraffin wax for sectioning. Three-micron sections will be stained with hematoxylin-eosin (H&E) and periodic acid-Schiff (PAS), and analyzed by light microscopy. Lesions will be scored based on 1) mitosis and necrosis of individual cells, 2) necrosis of all cells in adjacent proximal convoluted tubules with survival of surrounding tubules, 3) necrosis confined to the distal third of the proximal convoluted tubule with a band of necrosis extending across the inner cortex, and 4) necrosis affecting all three segments of the proximal convoluted tubule. […]

[3] = system: isolated mouse liver mitochondria; test: Example 10: uptake into isolated mitochondria; type: in vitro ADME
Description: To isolate mitochondria from mouse liver, mice will be sacrificed by decapitation. The liver will be removed and rapidly placed into chilled liver homogenization medium. The liver will be finely minced using scissors and then homogenized by hand using a glass homogenizer.
The homogenate will be centrifuged for 10 minutes at 1000×g at 4° C. The supernatant will be aspirated and transferred to polycarbonate tubes and centrifuged again for 10 minutes at 3000×g, 4° C. The resulting supernatant will be removed, and the fatty lipids on the side-wall of the tube will be removed.
The pellet will be resuspended in liver homogenate medium and the homogenization repeated twice. The final purified mitochondrial pellet will be resuspended in medium. Protein concentration in the mitochondrial preparation will be determined by the Bradford procedure.
Approximately 1.5 mg mitochondria in 400 μL buffer will be incubated with [^3H] peptide conjugates; [^3H] aromatic-cationic peptides (an equivalent molar dose of aromatic-cationic peptide based on the concentration of the aromatic-cationic peptide administered in the peptide conjugate treatment group); [^3H] […] The mitochondria will then be centrifuged and the amount of radioactivity will be determined in the mitochondrial fraction and buffer fraction. […]

## N=C(N)NCCC[C@H](NC(=O)[C@@H](N)Cc1c[nH]c2ccccc12)C(=O)N[C@@H](Cc1c[nH]c2ccccc12)C(=O)N[C@@H](CCCCN)C(N)=O [SPN10, H-L-Trp-L-Arg-L-Trp-L-Lys-NH2] (H-WRWK-NH2)
[1]
  mitochondrial reduction potential: enhance
[2]; 30 minutes before ischemia and immediately before reperfusion, 24 hours of reperfusion
  BUN and serum creatinine values: improve BUN and serum creatinine values
[2]; rat, in vivo
  tubular cell apoptosis after ischemia and reperfusion: prevent tubular cell apoptosis
  tubular cell injury after ischemia and reperfusion: prevent tubular cell injury
[3]; 5-30 minutes at 37° C.
  concentration in mitochondria compared with buffer: higher than in the buffer
[3]; FCCP
  amount associated with the mitochondrial pellet after FCCP: decrease the amount
